Assay results taken from US20210196724A1, “BIARYL COMPOSITIONS AND METHODS FOR MODULATING A KINASE CASCADE” (Athenex, Inc., priority 2016, published 2021).
“And” between values parts separate entries of the source, which are not always exact repeats. Equal entries are not always repeated.

Legend:
GL261 cells = assay: MTT cell growth inhibition (GI50), GL261; type: cell-based, murine; details: 3 days
Description: (§1) The drug concentration required to block net cell growth by 50% relative to a control sample is measured as the GI50. The GI50s for several of the compounds of the application were assayed as described.
(§2) MTT assay: U87 and GL261 cells were seeded in 96-well plate (6×10^3 cells in 100 μl of DMEM+10% FBS media per well) and incubated overnight at 37° C. with 5% CO2. All test compounds were diluted (10 point 2-fold serial dilution) in a separate 96-well plate to yield 10× of final concentrations (0.5-256 nM). A volume of 11 μl of 10× dilutions was added to appropriate wells (n=3). To value (reflecting the starting number of cells upon drug treatment) was determined by following steps as described below. After 3 days incubation at 37° C. with 5% CO2, 10 μl of MTT solution (5 mg/ml in PBS) was added to each well and plates were incubated at 37° C. for 3 h to allow MTT to form formazan crystals by reacting with metabolically active cells. 100 μl of 20% SDS was added to each well and plates were incubated overnight at 37° C. with 5% CO2. Afterward, OD570 was measured using microplate reader. The cell growth percentage of control was calculated according to percentage of control=(T−T0)/(C−T0)×100% or OD value of the test well exposure to test drug—OD value at time zero/(OD of the control well without drug treatment−OD value at time zero)×100%. Growth inhibition curves and GI50 were determined using GraphPad Prism 5 software.

U87 cells = assay: MTT cell growth inhibition (GI50), U87; type: cell-based, human; details: 3 days
Description: as §1, §2

HT-29 = assay: Cell growth inhibition (GI50), HT-29; type: cell-based; details: Homo sapiens, HT-29, HT-29
Description: as §1

[1] = Pharmacokinetic properties after IV and PO administration; type: in vivo; details: for AUCIV (dose-normalized) / t0.5 / C0 / clearance / Vd: IV Administration (5 mg/kg); for F (%) = 100 × AUCpo/AUCIV: PO 20 mg/kg vs IV 5 mg/kg; for AUCPO (dose-normalized) / Cmax: PO Administration (20 mg/kg); for C0 / clearance / Vd / Cmax: in vivo; for Vd: read-out: Vss
[2] = Brain permeability (brain:plasma ratio); type: in vivo; details: read-out: Brain:Plasma (B:P) Average; for Kp at 0.25 h: time point 0.25 h; for Kp at 0.5 h: time point 0.5 h; for Kp at 1 h: time point 1 h; for Kp at 2 h: time point 2 h; for Kp at 4 h: time point 4 h; for Kp at 6 h: time point 6 h; for Kp at 8 h: time point 8 h
Description: Brain permeability can be measured by various methods known in the art. For example, brain permeability can be measured by calculating the ratio between the concentration of a compound of the application in the brain and the concentration of the compound in the plasma (i.e., BP ratio). In one aspect, a compound of the application has a B:P ratio of at least 1.0, 1.1, 1.2, 1.3, 1.4, 1.5, 1.6, 1.7, 1.8, 1.9, or 2.0 at 1 hour after administration of the compound to a subject. In one aspect, a compound of the application has a B:P ratio of at least 1.5, 1.6, 1.7, 1.8, 1.9, or 2.0 at 1 hour after administration of the compound to a subject. In one aspect, a compound of the application has a B:P ratio of at least 1.4, 1.5, 1.6, 1.7, 1.8, 1.9, 2.0, 2.1, 2.2, or 2.3 at 2 hours after administration of the compound to a subject. In one aspect, a compound of the application has a B:P ratio of at least 1.9, 2.0, 2.1, 2.2, or 2.3 at 2 hours after administration of the compound to a subject. In one aspect, a compound of the application has a B:P ratio of at least 1.7, 1.8, 1.9, 2.0, 2.1, 2.2, 2.3, 2.4, or 2.5 at 4 hours after administration of the compound to a subject. In one aspect, a compound of the application has a B:P ratio of at least 2.2, 2.3, 2.4, or 2.5 at 4 hours after administration of the compound to a subject.

[3] = system: GL261 glioblastoma cells injected intra-cranially; assay: GL261 murine model of glioblastoma (intra-cranial), survival; type: in vivo, C57BL/6 mice
Description: The anti-tumor activity of Compound 121, as a single agent, was studied in the GL261 murine model of human glioblastoma. Murine GL261 glioblastoma cells were injected intra-cranially into syngeneic, immune-competent hosts (C57BL/6). In order for oral therapeutics to be effective, it is required that the therapeutic be able to cross the blood-brain barrier in order to achieve sufficient levels in the brain to exert an anti-tumor effect. Survival was the major endpoint for the study. The mice either succumbed to the tumor or were euthanized based on severity of tumor-dependent morbidity. Mice that achieved long-term survival (>80 days) were re-challenged with a sub-cutaneous injection of GL261 cells to assess the development of a durable immune response to GL261. Mice that underwent the re-challenge phase were not treated with Compound 121.
GL261 cells (1×10^5 cells) were implanted into the brain of a C57BL/6 host using stereotactice injection. Compound 121 was dosed orally once per day at 1 mg/kg (N=10) for 45 days beginning 3 days post-tumor cell implantation. Compound Y was dosed orally once per day at 5 mg/kg (N=10) for 45 days beginning 3 days post-tumor implantation. A vehicle was administered to a control group of mice (N=10) per the same schedule.
Mice were monitored for signs of tumor dependent morbidity, including head tilt, hunching, ataxia, and limb weakness. Mice were euthanized when cumulative signs of high tumor burden were evident.

Row | Structure (SMILES) | GI50 (GL261 cells) | GI50 (GL261 cells; Mus musculus, GL261, 72 h) [nM] | GI50 (U87 cells) | GI50 (U87 cells; Homo sapiens, U-87 MG, 72 h) [nM] | further results
1 | C[C@H]1CN(c2ccc(-c3ccc(CC(=O)NCc4cccc(F)c4)nc3)cc2)CCO1 [Compound 100] | 127 nM | 129 | 151 nM | 203 | –
2 | C[C@@H]1CN(c2ccc(-c3ccc(CC(=O)NCc4cccc(F)c4)nc3)cc2)CCO1 [Compound 101] | – | 76 | – | 96 | –
3 | C[C@H]1COCCN1c1ccc(-c2ccc(CC(=O)NCc3cccc(F)c3)nc2)cc1 [Compound 102] | 42 nM | 24 | 37 nM | 25 | –
4 | C[C@@H]1COCCN1c1ccc(-c2ccc(CC(=O)NCc3cccc(F)c3)nc2)cc1 [Compound 103] | – | 113 | – | 146 | –
5 | Cc1cc(N2CCOC[C@H]2C)ccc1-c1ccc(CC(=O)NCc2ccccc2)nc1 [Compound 105] | 6.9 nM | 5.7 | 12.2 nM | 10.8 | –
6 | Cc1cc(N2CCOC[C@@H]2C)ccc1-c1ccc(CC(=O)N[C@@H]2CCc3ccccc32)nc1 [Compound 107] | 28.3 nM | 19.4 | 23.4 nM | 22.1 | –
7 | C[C@H]1COCCN1c1ccc(-c2ccc(CC(=O)NCc3ccccc3)nc2)cc1 [Compound 108] | – | 6.8 | – | 6.6 | GI50 (HT-29): 3 nM
8 | Cc1cc(CC(=O)NCc2cccc(F)c2)ncc1-c1ccc(N2CCOC[C@@H]2C)cc1 [Compound 109] | – | > 1020 | – | > 1020 | –
9 | Cc1cc(CC(=O)NCc2cccc(F)c2)ncc1-c1ccc(N2CCOC[C@H]2C)cc1 [Compound 110] | – | > 1020 | – | > 1020 | –
10 | Cc1cc(CC(=O)NCc2ccccc2)ncc1-c1ccc(N2CCOC[C@@H]2C)cc1 [Compound 111] | 170 nM | 195 | 224 nM | 239 | –
11 | Cc1cc(CC(=O)NCc2ccccc2)ncc1-c1ccc(N2CCOC[C@H]2C)cc1 [Compound 112] | 240 nM | 210 | 401 nM | 352 | –
12 | Cc1nc(CC(=O)NCc2cccc(F)c2)ccc1-c1ccc(N2CCOC[C@@H]2C)cc1 [Compound 113] | 120 nM and 99 nM | 180 | – | – | GI50 (HT-29): 46 nM
13 | Cc1nc(CC(=O)NCc2cccc(F)c2)ccc1-c1ccc(N2CCOC[C@H]2C)cc1 [Compound 114] | 500 nM | 340 | – | – | –
14 | Cc1nc(CC(=O)NCc2ccccc2)ccc1-c1ccc(N2CCOC[C@@H]2C)cc1 [Compound 115] | – | – | 15 nM and 15.6 nM | 30 | –
15 | Cc1nc(CC(=O)NCc2ccccc2)ccc1-c1ccc(N2CCOC[C@H]2C)cc1 [Compound 116] | 90 nM and 74 nM | 110 | 115 nM and 98 nM | 120 | –
16 | Cc1cc(N2CCOC[C@@H]2C)ccc1-c1ccc(CC(=O)NCc2ccncc2)nc1 [Compound 117] | 387 nM | 488 | – | > 729 | –
17 | Cc1cc(N2CCOC[C@@H]2C)ccc1-c1ccc(CC(=O)NCc2cccnc2)nc1 [Compound 118] | – | 262 | – | 621 | –
18 | Cc1cc(N2CCOC[C@@H]2C)ccc1-c1ccc(CC(=O)NCc2ccccn2)nc1 [Compound 119] | 216 nM and 139 nM | 164 | 233 nM and 224 nM | 129 | –
19 | Cc1cc(N2CCOC[C@@H]2C)ccc1-c1ccc(CC(=O)NCc2ccccc2F)nc1 [Compound 120] | 13.6 nM and 18.9 nM and 15.8 nM and 13.4 nM and 10.7 nM | 17 | 22.3 nM and 18.4 nM and 17.7 nM and 18.6 nM | 20.2 | AUCIV (dose-normalized) [1]: 188 kg·ng·h/mL/mg; t0.5 [1]: 0.663 h; F (%) = 100 × AUCpo/AUCIV [1]: 40.9%; AUCPO (dose-normalized) [1]: 76.8 kg·ng·h/mL/mg; C0 [1]: 1590 ng/mL; clearance [1]: 88.7 mL/min/kg; Vd [1]: 3.63 L/kg; Cmax [1]: 798 ng/mL; Kp at 0.25 h [2]: 1.24; Kp at 0.5 h [2]: 1.39; Kp at 1 h [2]: 1.72; Kp at 2 h [2]: 1.38; Kp at 4 h [2]: 1.04; Kp at 6 h [2]: 0.82; Kp at 8 h [2]: 1.12
20 | Cc1cc(N2CCOC[C@@H]2C)ccc1-c1ccc(CC(=O)NCc2ccc(C#N)cc2)nc1 [Compound 122] | 18.9 nM | 13.8 | 17.3 nM | 24.7 | –
21 | Cc1cc(N2CCOC[C@@H]2C)ccc1-c1ccc(CC(=O)NCc2ccccc2C#N)nc1 [Compound 123] | – | 456 | – | 473 | –
22 | Cc1cc(N2CCOC[C@@H]2C)ccc1-c1ccc(CC(=O)NCc2cccc(C#N)c2)nc1 [Compound 124] | – | 1030 | – | 860 | –
23 | COc1ccccc1CNC(=O)Cc1ccc(-c2ccc(N3CCOC[C@@H]3C)cc2C)cn1 [Compound 125] | 158 nM | 140 | 230 nM | 195 | –
24 | COc1cc(N2CCOC[C@@H]2C)ccc1-c1ccc(CC(=O)NCc2ccccc2)nc1 [Compound 126] | 38.6 nM | 47.9 | 46 nM | 41.9 | –
25 | COc1cc(N2CCOC[C@@H]2C)ccc1-c1ccc(CC(=O)NCc2ccccc2F)nc1 [Compound 127] | – | 207 | – | 269 | –
26 | COc1cc(N2CCOC[C@@H]2C)ccc1-c1ccc(CC(=O)NCc2cccc(F)c2)nc1 [Compound 128] | – | 303 | – | 377 | –
27 | COc1cc(N2CCOC[C@@H]2C)ccc1-c1ccc(CC(=O)NCc2ccc(F)cc2)nc1 [Compound 129] | 30.3 nM | 51.7 | 38.1 nM | 36 | –
28 | COc1cc(N2CCOC[C@@H]2C)ccc1-c1ccc(CC(=O)NCc2ccc(C#N)cc2)nc1 [Compound 130] | 107 nM | 111 | 135 nM | 104 | –
29 | O=C(Cc1ccc(-c2ccc(N3CCOCC3)cc2)cn1)NCc1cccc(F)c1 [Compound Y, reference compound] | – | – | – | – | AUCIV (dose-normalized) [1]: 553 kg·ng·h/mL/mg; t0.5 [1]: 0.364 h; F (%) = 100 × AUCpo/AUCIV [1]: 39.3%; AUCPO (dose-normalized) [1]: 217 kg·ng·h/mL/mg; C0 [1]: 4620 ng/mL; clearance [1]: 30.2 mL/min/kg; Vd [1]: 0.962 L/kg; Cmax [1]: 2590 ng/mL; Kp at 0.25 h [2]: 1.56; Kp at 0.5 h [2]: 1.46; Kp at 1 h [2]: 1.33; Kp at 2 h [2]: 0.712; Kp at 4 h [2]: 0.834; Kp at 6 h [2]: 0.633; Kp at 8 h [2]: 0.685; Activity in GL261 model ([3]; dosed once daily at >20 mg/kg): demonstrated activity; Effect on survival ([3]; orally once per day at 5 mg/kg for 45 days): only a marginal, insignificant effect on survival
